{"source": "patent US10940129B2", "about": "“Method of treatment for reducing pain sensitization” (priority 2018, dated 2021)", "key": {"[1]": {"experiment": "Computed Log P (PubChem, XLogP3-AA algorithm)", "details": "worked out from Log P", "from_the_text": "Partition coefficient; Log P: The ratio of the concentrations of a solute between two solvents. When one of the solvents is non-polar and the other is water, this is a measure of lipophilicity and the logarithm of the ratio is Log P. Unless otherwise specified, the Log P values reported herein are from the National Library of Medicine “PubChem” database (which uses the XLogP3-AA algorithm for Log P determination)."}, "[2]": {"target": "TRPA1 (Homo sapiens, UniProt O75762)", "sequence (O75762 whole entry, species assumed)": "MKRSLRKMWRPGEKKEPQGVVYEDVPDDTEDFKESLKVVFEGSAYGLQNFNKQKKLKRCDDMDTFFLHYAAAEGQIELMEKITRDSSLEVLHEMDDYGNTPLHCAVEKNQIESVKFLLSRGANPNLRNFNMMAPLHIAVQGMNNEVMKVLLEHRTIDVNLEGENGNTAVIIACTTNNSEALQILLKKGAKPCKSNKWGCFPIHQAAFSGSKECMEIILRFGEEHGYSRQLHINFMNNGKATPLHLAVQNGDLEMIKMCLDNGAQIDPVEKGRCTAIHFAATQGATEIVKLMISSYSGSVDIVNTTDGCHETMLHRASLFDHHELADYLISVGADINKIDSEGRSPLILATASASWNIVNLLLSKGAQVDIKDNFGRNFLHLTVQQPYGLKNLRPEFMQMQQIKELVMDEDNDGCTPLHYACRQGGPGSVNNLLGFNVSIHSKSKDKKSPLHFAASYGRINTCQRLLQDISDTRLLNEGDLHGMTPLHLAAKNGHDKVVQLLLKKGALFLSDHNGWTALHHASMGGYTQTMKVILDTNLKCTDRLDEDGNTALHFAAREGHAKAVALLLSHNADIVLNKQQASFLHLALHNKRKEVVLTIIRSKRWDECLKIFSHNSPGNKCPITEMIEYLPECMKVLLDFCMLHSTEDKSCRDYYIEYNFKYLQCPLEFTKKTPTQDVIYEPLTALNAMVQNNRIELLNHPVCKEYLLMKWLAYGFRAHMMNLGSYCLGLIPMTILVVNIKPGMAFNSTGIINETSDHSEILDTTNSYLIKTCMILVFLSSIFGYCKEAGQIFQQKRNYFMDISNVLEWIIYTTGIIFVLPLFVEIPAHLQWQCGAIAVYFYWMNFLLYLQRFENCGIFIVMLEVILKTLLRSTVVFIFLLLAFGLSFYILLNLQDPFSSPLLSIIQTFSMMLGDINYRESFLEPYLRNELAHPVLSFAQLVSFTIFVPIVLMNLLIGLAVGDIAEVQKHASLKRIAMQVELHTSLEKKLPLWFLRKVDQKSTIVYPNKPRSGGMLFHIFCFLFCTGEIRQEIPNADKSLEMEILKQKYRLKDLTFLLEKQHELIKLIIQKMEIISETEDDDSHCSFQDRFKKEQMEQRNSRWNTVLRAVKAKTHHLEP", "experiment": "TRPA1 agonist activity"}, "[3]": {"tested_on": "formaldehyde induced pain and toxicity", "details": "[Bai, 2012], [Song, 2010]; cited from earlier work"}, "[4]": {"tested_on": "chronic pain", "experiment": "Self-reports of voluntary evaluators taking Protein-Allium (10 point pain scale, symptoms, side effects)", "description": "On a 10 point pain scale the pain level was 10.\nOn a 10 point pain scale, the pain level was 10."}, "[5]": {"tested_on": "male rats", "details": "5 day course started 10 days after chronic constriction injury; cited from earlier work"}, "[6]": {"target": "T1, mouse TRPA1 (Mus musculus, UniProt Q8BLA8)", "T1 construct": "expressed in transfected cells; host or cells: HEK 293", "details": "HEK 293 cells transfected with mouse TRPA1; cited from earlier work"}, "[7]": {"tested_on": "ALDH2*1/*2 mutant and wild-type mice", "details": "cited from earlier work; for licking or flinching: 100 ng into a rear paw"}, "[8]": {"tested_on": "mice", "details": "low dose into the hind paws; zero degree cold plate; vehicle 125 seconds; cited from earlier work"}, "[9]": {"tested_on": "TRPA1", "details": "low level of 4-HNE; 25 degrees C. to 10 degrees; cited from earlier work"}, "[10]": {"tested_on": "ALDH2*1/*2 mice", "details": "1.2 g stimulus level, 3 hours after carrageenan; cited from earlier work"}, "[11]": {"target": "T2, ALDH2*2 (Homo sapiens, UniProt P05091, E504K)", "T2 sequence (P05091 18-517 E504K)": "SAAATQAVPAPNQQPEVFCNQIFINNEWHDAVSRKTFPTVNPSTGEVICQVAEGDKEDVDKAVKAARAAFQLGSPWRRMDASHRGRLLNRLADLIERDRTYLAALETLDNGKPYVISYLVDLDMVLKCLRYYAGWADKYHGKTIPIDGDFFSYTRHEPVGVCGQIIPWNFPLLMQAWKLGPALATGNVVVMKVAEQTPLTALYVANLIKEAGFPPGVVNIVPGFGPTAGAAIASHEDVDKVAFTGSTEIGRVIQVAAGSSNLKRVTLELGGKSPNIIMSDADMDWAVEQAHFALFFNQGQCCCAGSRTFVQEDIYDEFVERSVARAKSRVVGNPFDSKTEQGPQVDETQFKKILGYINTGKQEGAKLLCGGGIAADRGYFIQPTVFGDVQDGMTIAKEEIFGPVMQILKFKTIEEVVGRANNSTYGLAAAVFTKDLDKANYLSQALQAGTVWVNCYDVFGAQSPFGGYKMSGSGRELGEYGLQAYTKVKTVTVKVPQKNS", "details": "[Chen, 2008]; cited from earlier work"}, "[12]": {"tested_on": "wild-type and mutant mice", "details": "10 to 40 minutes; formalin (2% aqueous formaldehyde) into the paw; both wild-type and mutant mice; cited from earlier work"}, "[13]": {"target": "T3, ALDH2*1 (Homo sapiens, UniProt P05091)", "T3 sequence (P05091 18-517)": "T2 sequence (P05091 18-517 E504K) with K487E", "details": "[Perez-Miller, 2010]; cited from earlier work"}, "[14]": {"tested_on": "glutathione content of cells", "details": "daily dosage of 1000 mg; patients; cited from earlier work"}}, "note": "Residue numbers refer to the chain shown, from its start. Like-named read-outs stand apart in the source and are kept apart here."}
{"molecule": "C=CCSSCC=C", "note": "[Diallyl disulfide]", "values": [{"measurement": "concentration on the oily (lipid) side relative to the aqueous side", "setting": "[1]", "result": "about 160 times"}]}
{"molecule": "CCCCC/C=C/C=C1/C(=O)C=C[C@@H]1C/C=C\\CCCC(=O)O", "note": "[15d-PGJ2]", "values": [{"measurement": "more active than 4-HNE", "setting": "[2]", "result": "~10"}]}
{"molecule": "NNCCc1ccccc1", "note": "[Phenelzine]", "values": [{"measurement": "reducing formaldehyde induced pain and toxicity", "setting": "[3]", "result": "effective"}]}
{"molecule": "NCC1(CC(=O)O)CCCCC1", "note": "[Gabapentin]", "values": [{"measurement": "side effects", "setting": "[4]; self-report", "result": "bad side effects (drowsiness)"}, {"measurement": "muscle memory (residual pain), shoulder neuropathy", "setting": "[4]; subject two", "result": "always had muscle memory of the pain"}]}
{"molecule": "COc1ccc2cc([C@H](C)C(=O)O)ccc2c1", "note": "[Naprosyn]", "values": [{"measurement": "pain level, adenomyosis", "setting": "[4]; 10-point pain scale, subject two", "result": 4}]}
{"molecule": "CN1CC[C@]23c4c5ccc(O)c4O[C@H]2[C@@H](O)C=C[C@H]3[C@H]1C5", "note": "[morphine]", "values": [{"measurement": "duration of injury-related allodynia", "setting": "[5]", "result": "more than doubling"}]}
{"molecule": "N[C@@H](CS)C(=O)O", "note": "[cysteine, (R)-2-Amino-3-mercaptopropanoic acid]", "values": [{"measurement": "partitions into water vs. oil", "setting": "[1]", "result": "~300 to 1"}]}
{"molecule": "CCCSSCCC", "note": "[disulfide from propyl mercaptan, dipropyl disulfide]", "values": [{"measurement": "concentration on the oily (lipid) side relative to the aqueous side", "setting": "[1]", "result": "about 500 times"}]}
{"molecule": "CC12CCC(CC1=O)C2(C)C", "note": "(centres unmarked) [camphor]", "values": [{"measurement": "effect on H2O2-induced Ca^2+ increase", "setting": "[6]", "result": "prevents"}]}
{"molecule": "CCCS", "note": "[Propyl mercaptan, 1-PropaneThiol]", "values": [{"measurement": "concentration on the oily (lipid) side relative to the aqueous side", "setting": "[1]", "result": "about 65 times"}]}
{"molecule": "C[C@]12CCC(=O)C=C1CC[C@@H]1[C@@H]2C(=O)C[C@@]2(C)[C@H]1CC[C@]2(O)C(=O)CO", "note": "[cortisone]", "values": [{"measurement": "benefit on back pain", "setting": "[4]; injection, subject one", "result": "minimal benefit"}]}
{"molecule": "N[C@@H](CCS)C(=O)O", "note": "[Homocysteine, (S)-2-Amino-4-mercaptobutyric acid]", "values": [{"measurement": "more hydrophilic than cysteine", "setting": "[1]", "result": "~10", "unit": "×"}]}
{"molecule": "CC=O", "note": "[acetylaldehyde]", "values": [{"measurement": "licking or flinching", "setting": "[7]; mutant mice", "result": 5, "unit": "s"}, {"measurement": "licking or flinching", "setting": "[7]; wild-type mice", "result": 4, "unit": "s"}, {"measurement": "mutant mice more sensitive to pressure (nociceptive threshold)", "setting": "[7]; after injection, mutant vs wild-type mice", "result": 4, "unit": "times"}]}
{"molecule": "CCCCCC(O)C=CC=O", "note": "(centres unmarked) [4-hydroxy-2-nonenal (4-HNE), 4-hydroxy-2-nonenal]", "values": [{"measurement": "time to first jump", "setting": "[8]", "result": 20, "unit": "s"}, {"measurement": "potentiation of current flow by lowering the temperature", "setting": "[9]", "result": 3, "unit": "factor"}]}
{"molecule": "catalase", "values": [{"measurement": "effect on H2O2-induced Ca^2+ increase", "setting": "[6]", "result": "abolished"}]}
{"molecule": "O[C@H](CS)[C@H](O)CS", "note": "(racemic) [dithiothreitol]", "values": [{"measurement": "effect on H2O2-induced Ca^2+ increase", "setting": "[6]", "result": "markedly decreased"}]}
{"molecule": "O=C(NCc1ccc2c(c1)OCO2)c1c(Cl)cccc1Cl", "note": "[Alda-1]", "values": [{"measurement": "less sensitive to mechanical pain than wild-type mice without treatment", "setting": "[10]", "result": "~30", "unit": "%"}, {"measurement": "increase of the activity of ALDH2*2", "setting": "[11]", "result": 2.2, "unit": "fold"}, {"measurement": "decrease of early second phase pain response", "setting": "[12]", "result": "~60", "unit": "%"}, {"measurement": "efficiency of ALDH2*1", "setting": "[13]", "result": "doubles"}]}
{"molecule": "c1ccc(SSc2ccccn2)nc1", "note": "[2,2′-dipyridyl disulfide]", "values": [{"measurement": "intracellular Ca^2+", "setting": "[6]", "result": "increased intracellular Ca^2+ in a dose-dependent manner"}]}
{"molecule": "O=C1O[C@H]([C@@H](O)CO)C(O)=C1O", "note": "[vitamin C]", "values": [{"measurement": "mean percentage decrease of glutathione", "setting": "[14]", "result": 60, "unit": "%"}]}
